Measurements as given in ChEMBL document CHEMBL2380230, “Potency switch between CHK1 and MK2: discovery of imidazo[1,2-a]pyrazine- and imidazo[1,2-c]pyrimidine-based kinase inhibitors” (Bioorg Med Chem Lett, 2013).

Assays:
[1] = target: T1, Serine/threonine-protein kinase Chk1 (Homo sapiens, UniProt O14757); test: Inhibition of CHK1 (unknown origin)
T1 sequence (O14757 whole entry): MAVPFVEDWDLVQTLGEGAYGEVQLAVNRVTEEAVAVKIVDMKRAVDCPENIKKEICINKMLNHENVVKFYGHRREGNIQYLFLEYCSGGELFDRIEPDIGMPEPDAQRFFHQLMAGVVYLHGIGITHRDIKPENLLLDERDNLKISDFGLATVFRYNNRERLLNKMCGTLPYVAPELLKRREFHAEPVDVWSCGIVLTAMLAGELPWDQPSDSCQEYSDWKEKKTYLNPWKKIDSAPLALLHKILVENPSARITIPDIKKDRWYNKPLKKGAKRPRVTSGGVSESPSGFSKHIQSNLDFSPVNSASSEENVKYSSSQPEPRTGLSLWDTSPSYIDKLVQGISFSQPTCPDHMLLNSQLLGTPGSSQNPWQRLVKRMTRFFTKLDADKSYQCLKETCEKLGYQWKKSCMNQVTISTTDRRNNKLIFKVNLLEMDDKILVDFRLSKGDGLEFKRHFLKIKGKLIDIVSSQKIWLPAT

[2] = target: T2, MAP kinase-activated protein kinase 2 (Homo sapiens, UniProt P49137); test: Inhibition of human recombinant MK2
Target sequence in this assay (P49137 whole entry): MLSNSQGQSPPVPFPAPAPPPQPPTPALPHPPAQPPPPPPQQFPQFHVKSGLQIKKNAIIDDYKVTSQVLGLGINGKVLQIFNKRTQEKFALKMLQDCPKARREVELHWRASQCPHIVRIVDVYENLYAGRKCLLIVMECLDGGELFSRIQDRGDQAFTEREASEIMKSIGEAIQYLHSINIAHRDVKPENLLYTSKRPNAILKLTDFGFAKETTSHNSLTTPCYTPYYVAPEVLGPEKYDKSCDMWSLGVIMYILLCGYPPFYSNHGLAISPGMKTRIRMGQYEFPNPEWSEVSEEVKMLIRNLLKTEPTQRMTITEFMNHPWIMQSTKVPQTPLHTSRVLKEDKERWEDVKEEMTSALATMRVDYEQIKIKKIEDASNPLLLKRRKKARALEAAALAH

[3] = target: T2, MAP kinase-activated protein kinase 2; test: Inhibition of human recombinant MK2 at 10 uM
Target sequence in this assay (P49137 whole entry, looked up): as the sequence (P49137 whole entry) above

[4] = target: RAC-alpha serine/threonine-protein kinase (Homo sapiens, UniProt P31749); test: Inhibition of human AKT1
Sequence of RAC-alpha serine/threonine-protein kinase (P31749 whole entry): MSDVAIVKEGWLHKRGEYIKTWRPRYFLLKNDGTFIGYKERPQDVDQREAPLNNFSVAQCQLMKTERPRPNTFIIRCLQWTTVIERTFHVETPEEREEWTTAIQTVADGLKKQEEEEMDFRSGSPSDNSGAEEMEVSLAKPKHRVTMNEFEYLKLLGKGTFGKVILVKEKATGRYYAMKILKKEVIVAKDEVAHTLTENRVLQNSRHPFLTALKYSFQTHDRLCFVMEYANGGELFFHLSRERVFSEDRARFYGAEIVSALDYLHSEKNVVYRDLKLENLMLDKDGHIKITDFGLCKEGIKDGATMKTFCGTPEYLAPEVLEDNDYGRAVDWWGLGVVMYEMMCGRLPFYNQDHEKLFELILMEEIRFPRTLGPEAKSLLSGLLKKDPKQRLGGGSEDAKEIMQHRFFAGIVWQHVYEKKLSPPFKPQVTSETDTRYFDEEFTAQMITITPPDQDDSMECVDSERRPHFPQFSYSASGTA

[5] = target: T3, Inhibitor of nuclear factor kappa-B kinase subunit beta (Homo sapiens, UniProt O14920); test: Inhibition of human IKKB
T3 sequence (O14920 whole entry): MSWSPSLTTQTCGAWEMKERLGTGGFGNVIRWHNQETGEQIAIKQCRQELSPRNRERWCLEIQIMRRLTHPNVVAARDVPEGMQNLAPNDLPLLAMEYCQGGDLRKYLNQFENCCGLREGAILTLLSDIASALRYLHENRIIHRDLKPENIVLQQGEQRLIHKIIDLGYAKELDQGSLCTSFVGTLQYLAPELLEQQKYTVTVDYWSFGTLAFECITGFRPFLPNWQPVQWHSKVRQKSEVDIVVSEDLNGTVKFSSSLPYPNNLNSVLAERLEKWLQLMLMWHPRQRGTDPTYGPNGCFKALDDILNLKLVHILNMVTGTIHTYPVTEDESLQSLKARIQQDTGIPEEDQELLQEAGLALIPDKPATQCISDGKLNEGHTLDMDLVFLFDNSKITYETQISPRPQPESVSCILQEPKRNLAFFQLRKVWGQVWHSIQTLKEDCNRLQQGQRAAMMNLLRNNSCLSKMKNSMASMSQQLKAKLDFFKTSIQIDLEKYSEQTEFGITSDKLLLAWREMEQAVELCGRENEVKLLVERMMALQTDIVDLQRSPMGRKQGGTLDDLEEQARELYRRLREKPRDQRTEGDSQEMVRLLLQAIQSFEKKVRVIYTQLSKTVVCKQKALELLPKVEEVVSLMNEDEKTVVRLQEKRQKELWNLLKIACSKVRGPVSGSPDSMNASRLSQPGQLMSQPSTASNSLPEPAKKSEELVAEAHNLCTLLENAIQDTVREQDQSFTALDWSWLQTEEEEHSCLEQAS

[6] = target: Tyrosine-protein kinase Lck (Homo sapiens, UniProt P06239); test: Inhibition of human LCK
Sequence of Tyrosine-protein kinase Lck (P06239 whole entry): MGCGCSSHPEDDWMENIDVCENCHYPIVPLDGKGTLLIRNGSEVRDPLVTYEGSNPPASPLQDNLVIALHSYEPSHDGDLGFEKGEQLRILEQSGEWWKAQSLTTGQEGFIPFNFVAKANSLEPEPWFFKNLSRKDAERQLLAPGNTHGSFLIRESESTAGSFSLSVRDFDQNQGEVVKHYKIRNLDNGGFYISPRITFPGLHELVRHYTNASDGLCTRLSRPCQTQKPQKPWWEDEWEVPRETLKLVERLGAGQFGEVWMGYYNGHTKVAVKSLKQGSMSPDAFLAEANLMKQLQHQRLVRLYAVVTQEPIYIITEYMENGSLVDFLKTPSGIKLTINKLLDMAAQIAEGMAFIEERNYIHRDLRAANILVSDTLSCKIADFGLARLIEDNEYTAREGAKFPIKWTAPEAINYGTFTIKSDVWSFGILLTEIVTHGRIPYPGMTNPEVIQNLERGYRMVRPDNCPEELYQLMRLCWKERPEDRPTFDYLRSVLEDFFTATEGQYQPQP

[7] = target: Insulin-like growth factor 1 receptor (Homo sapiens, UniProt P08069); test: Inhibition of human IGF1R
Sequence of Insulin-like growth factor 1 receptor (P08069 31-736 limits assumed): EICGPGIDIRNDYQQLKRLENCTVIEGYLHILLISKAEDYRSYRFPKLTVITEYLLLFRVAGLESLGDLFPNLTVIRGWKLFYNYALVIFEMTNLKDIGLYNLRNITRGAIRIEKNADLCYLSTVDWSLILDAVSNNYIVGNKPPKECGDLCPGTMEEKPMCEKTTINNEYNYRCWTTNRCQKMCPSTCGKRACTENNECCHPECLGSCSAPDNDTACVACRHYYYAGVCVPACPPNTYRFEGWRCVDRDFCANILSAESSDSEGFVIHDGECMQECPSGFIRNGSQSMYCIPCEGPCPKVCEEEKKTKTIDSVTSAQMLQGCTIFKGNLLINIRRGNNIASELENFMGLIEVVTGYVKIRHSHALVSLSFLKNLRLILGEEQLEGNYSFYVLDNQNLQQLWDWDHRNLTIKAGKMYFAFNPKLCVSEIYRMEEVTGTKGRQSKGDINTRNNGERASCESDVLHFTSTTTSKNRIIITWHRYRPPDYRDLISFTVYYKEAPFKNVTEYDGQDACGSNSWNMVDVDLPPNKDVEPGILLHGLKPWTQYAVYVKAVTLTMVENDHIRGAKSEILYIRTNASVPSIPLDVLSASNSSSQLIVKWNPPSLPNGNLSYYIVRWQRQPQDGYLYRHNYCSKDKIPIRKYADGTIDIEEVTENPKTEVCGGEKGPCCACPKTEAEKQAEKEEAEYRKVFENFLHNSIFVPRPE
Sequence of Insulin-like growth factor 1 receptor (P08069 741-1367 limits assumed): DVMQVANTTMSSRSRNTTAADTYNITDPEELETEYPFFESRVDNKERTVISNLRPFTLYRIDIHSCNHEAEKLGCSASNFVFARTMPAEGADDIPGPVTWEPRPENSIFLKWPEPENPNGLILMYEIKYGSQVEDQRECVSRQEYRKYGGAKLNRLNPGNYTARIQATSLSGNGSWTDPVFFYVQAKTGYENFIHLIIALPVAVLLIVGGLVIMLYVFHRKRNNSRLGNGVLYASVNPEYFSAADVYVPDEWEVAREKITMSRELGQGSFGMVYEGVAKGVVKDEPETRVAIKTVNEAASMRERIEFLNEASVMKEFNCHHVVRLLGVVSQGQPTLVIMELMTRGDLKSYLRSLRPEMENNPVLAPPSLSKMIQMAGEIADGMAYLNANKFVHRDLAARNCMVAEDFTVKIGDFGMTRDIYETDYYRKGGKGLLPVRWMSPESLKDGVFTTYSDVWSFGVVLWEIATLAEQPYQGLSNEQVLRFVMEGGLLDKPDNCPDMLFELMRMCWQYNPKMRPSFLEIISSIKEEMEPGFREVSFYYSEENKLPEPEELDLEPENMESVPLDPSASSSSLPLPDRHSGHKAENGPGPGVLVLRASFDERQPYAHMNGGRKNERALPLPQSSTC

[8] = target: Mitogen-activated protein kinase 1 (Homo sapiens, UniProt P28482); test: Inhibition of human ERK2
Sequence of Mitogen-activated protein kinase 1 (P28482 whole entry): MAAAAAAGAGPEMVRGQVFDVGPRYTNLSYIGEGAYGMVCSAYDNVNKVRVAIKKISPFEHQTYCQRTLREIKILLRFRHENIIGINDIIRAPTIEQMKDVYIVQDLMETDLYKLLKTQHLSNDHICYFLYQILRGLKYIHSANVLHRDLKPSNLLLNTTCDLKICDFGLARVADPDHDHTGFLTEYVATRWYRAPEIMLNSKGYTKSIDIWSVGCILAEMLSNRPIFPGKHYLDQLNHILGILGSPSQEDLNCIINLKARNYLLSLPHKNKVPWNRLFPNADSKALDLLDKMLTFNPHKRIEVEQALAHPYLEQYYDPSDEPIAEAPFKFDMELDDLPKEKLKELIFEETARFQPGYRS

[9] = target: Tyrosine-protein kinase JAK2 (Homo sapiens, UniProt O60674); test: Inhibition of human JAK2
[10] = target: Hepatocyte growth factor receptor (Homo sapiens, UniProt P08581); test: Inhibition of human MET
Sequence of Hepatocyte growth factor receptor (P08581 whole entry): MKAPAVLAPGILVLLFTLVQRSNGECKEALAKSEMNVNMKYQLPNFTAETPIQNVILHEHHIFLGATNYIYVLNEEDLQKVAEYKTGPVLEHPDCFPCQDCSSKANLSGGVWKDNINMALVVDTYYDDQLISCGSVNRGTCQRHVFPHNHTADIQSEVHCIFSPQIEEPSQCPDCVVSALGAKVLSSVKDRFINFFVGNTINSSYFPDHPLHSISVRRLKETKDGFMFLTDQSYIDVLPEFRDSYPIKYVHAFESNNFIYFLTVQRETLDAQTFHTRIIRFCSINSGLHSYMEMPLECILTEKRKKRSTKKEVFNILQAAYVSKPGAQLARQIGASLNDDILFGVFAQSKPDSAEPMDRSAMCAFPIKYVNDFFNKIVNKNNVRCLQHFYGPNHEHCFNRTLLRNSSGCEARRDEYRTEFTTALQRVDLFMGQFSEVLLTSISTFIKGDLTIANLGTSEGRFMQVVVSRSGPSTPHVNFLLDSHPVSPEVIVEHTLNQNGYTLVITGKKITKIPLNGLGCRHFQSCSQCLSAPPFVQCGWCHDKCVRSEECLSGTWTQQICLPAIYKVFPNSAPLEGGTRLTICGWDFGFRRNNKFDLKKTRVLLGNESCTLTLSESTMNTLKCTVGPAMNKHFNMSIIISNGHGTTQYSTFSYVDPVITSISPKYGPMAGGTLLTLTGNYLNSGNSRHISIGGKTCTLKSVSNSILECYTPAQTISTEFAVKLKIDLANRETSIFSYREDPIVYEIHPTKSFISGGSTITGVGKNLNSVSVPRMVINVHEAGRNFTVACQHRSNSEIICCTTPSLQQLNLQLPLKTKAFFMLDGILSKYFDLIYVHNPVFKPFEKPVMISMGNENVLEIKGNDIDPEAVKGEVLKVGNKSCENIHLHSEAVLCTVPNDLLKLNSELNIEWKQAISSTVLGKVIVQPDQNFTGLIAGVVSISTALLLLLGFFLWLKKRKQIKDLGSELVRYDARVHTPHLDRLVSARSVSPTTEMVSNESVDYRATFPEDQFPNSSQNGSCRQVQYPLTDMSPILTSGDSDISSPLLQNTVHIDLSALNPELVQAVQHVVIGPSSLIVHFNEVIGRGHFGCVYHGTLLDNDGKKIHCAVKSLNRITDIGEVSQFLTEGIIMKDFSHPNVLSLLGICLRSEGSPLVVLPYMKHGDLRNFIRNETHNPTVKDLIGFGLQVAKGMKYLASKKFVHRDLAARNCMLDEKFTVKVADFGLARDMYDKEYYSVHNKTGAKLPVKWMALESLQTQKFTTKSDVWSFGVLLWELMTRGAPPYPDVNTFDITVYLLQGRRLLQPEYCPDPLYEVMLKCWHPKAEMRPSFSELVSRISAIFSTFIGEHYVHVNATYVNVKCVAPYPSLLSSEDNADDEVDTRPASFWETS

[11] = target: T4, Testis-specific serine/threonine-protein kinase 2 (Homo sapiens, UniProt Q96PF2); test: Inhibition of human TSSK2
T4 sequence (Q96PF2 whole entry): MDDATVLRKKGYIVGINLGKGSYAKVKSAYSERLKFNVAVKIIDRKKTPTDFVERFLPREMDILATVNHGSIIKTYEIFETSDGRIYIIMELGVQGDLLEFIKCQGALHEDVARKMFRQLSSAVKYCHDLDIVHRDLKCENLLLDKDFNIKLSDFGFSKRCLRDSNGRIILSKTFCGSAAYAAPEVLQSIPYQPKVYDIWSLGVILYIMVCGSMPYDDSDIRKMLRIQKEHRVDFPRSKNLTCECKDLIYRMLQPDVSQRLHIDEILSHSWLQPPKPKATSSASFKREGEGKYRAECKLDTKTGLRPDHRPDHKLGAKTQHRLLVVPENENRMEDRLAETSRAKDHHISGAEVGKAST

[12] = target: Casein kinase I isoform delta (Homo sapiens, UniProt P48730); test: Inhibition of human CSNK1D
Sequence of Casein kinase I isoform delta (P48730 whole entry, canonical isoform): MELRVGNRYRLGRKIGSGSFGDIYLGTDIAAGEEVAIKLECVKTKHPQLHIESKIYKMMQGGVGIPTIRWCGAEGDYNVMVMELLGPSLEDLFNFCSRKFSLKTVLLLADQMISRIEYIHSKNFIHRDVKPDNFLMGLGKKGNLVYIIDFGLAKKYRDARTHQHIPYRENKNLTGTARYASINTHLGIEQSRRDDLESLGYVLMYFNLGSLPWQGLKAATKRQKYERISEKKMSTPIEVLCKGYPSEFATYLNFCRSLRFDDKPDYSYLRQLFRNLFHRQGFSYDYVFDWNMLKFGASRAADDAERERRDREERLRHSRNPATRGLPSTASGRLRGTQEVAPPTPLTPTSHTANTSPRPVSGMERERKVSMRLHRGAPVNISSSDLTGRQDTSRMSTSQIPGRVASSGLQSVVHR

| SMILES | IC50 [1] | IC50 [2] | other results |
| --- | --- | --- | --- |
| NC(=O)c1cnc(N[C@H]2CCCNC2)c2nc(-c3ccc(F)cc3)cn12 | 0.027 µM | 0.91 µM |  |
| NC(=O)c1cnc(Nc2cccnc2)c2nc(-c3ccc(Cl)cc3)cn12 |  | 10 µM |  |
| NC(=O)c1cnc(N[C@H]2CC[C@@H](N)CC2)c2nc(-c3ccc(Cl)cc3)cn12 |  | 1.9 µM |  |
| NC(=O)c1ncc(N[C@H]2CC[C@H](N)CC2)c2nc(-c3ccc(Cl)cc3)cn12 |  | 1.98 µM |  |
| NC(=O)c1cnc(N[C@H]2CC[C@H](N)CC2)c2nc(-c3ccc(Cl)c(Cl)c3)cn12 | 5.07 µM | 0.82 µM |  |
| NC(=O)c1cnc(NCC2CCCNC2)n2cc(-c3ccc(Cl)cc3)nc12 (stereo not given) | 50 µM |  | inhibition [3]: 61% |
| NCCCNc1ncc(C(N)=O)n2cc(-c3ccc(Cl)cc3)nc12 | 0.29 µM | 4.09 µM |  |
| CN[C@H]1CC[C@H](Nc2ncc(C(N)=O)n3cc(-c4ccc(Cl)cc4)nc23)CC1 | 0.89 µM | 0.4 µM |  |
| NC(=O)c1cnc(N[C@H]2CC[C@H](N)CC2)c2nc(-c3ccc(Cl)cc3)cn12 |  |  | IC50 [4]: > 30 µM; IC50 [5]: > 30 µM; IC50 [6]: 1 µM; IC50 [7]: 12 µM; IC50 [8]: > 30 µM; IC50 [9]: 13 µM; IC50 [10]: > 30 µM; IC50 [11]: 12 µM; IC50 [12]: 12 µM |
| NC(=O)c1cnc(N[C@H]2CCCNC2)c2nc(-c3ccc4ccccc4c3)cn12 | 0.023 µM | 0.91 µM |  |
| NC(=O)c1cnc(N[C@H]2CCCNC2)n2cc(-c3ccc(Cl)cc3)nc12 |  |  | inhibition [3]: 67% |
| NC(=O)c1cnc(N[C@@H]2CCNC2)n2cc(-c3ccc(Cl)cc3)nc12 | 42.1 µM |  | inhibition [3]: 56% |
| NC(=O)c1ncc(N[C@H]2CCCNC2)c2nc(-c3ccc(Cl)cc3)cn12 | 0.018 µM | 0.84 µM |  |
| CN1CCC(Nc2ncc(C(N)=O)c3nc(-c4ccc(Cl)cc4)cn23)CC1 | 50 µM |  | inhibition [3]: 69% |
| NC(=O)c1cnc(NC2CCNCC2)c2nc(-c3ccc(Cl)cc3)cn12 | 0.69 µM | 4.15 µM |  |
| NC(=O)c1cnc(N[C@H]2CC[C@H](N)CC2)n2cc(-c3ccc(Cl)cc3)nc12 | 50 µM | 4 µM |  |
